Reference: patent US9540418B2, “Polypeptide specifically binding to rare earth nanoparticles and use thereof” (University of Science and Technology of China, priority 2012, dated 2017)
Ends that are not written are not given here.

Tests used:
[1] = Competitive inhibition of REOB-1 phage binding to Nd2O3 by polypeptides (IC50); conditions: 100 μg Nd2O3, REOB-1 phages at a titer of 108, 2 hr incubation; read-out: IC50 (μM)* of polypeptides competitively inhibiting the binding of REOB-1 phages to Nd2O3 nanoparticles
Protocol: 100 μg Nd2O3 was mixed with the polypeptides, RE-1, AP-1, RE-2, RE-3, RE-4, RE-5, RE-6, RE-7, RE-8, RE-9, RE-10, etc., respectively. To the mixture, REOB-1 phages at a titer of 108 were added. After 2 hr of incubation, the number of REOB-1 phages binding to Nd2O3 was measured. IC50 value indicated the relative activity of various polypeptides competitively inhibiting the binding of REOB-1 phages to Nd2O3 nanoparticles. The polypeptide RE-1 and its analogues had different binding ability to Nd2O3.

[2] = tested on: HeLa-LC3 cells; assay: RE-1 analogues blocking nanophosphor-induced autophagy (LC3 aggregates and vacuoles); format: cell-based; conditions: 24 hr; for inhibition of GFP-LC3 dot-like aggregation and cytoplasm vacuolation induced by UCN: 100 μg/mL UCN coated or mixed; for rank of ability after coating UCN to inhibit cell autophagy induced by UCN: 100 μg/mL
Protocol: UCN and UCP coated with RE-1 analogues RE-2, RE-3, or RE-5 were prepared as follows: 50 μg or 10 μg RE-1 analogues RE-2, RE-3, or RE-5 was mixed with 100 μg UCN or UCP, respectively, incubated at 37° C. for 2 hr, centrifuged at 12000 rpm, and then washed with water 3 times to remove the excess and unbound peptides. The resultant precipitate was resuspended in 100 μL water.
HeLa-LC3 cells were inoculated into a 96-well cell culture plate at a density of about 1-2×10^4 cells/well, and cultured overnight for further use. At first, the medium was replaced with fresh DMEM medium, and then 100 μg/mL UCN, UCN+RE-1, UCN+RE-2, UCN+RE-3, or UCN+RE-5 was added. An equal volume of PBS was used as blank. A mixture of 100 μg/mL UCN and 10 mg/mL PEG was used as negative control. A mixture of 100 mM trehalose and 50 μg RE-1 was used as positive control. After culturing for 24 hr, a fluorescence microscope was used to observe, image, and count.
HeLa-LC3 cells were inoculated into a 96-well cell culture plate at a density of about 1-2×10^4 cells/well, and cultured overnight for further use. At first, the medium was replaced with fresh DMEM medium, and then 100 μg/mL UCP, UCP+RE-1, UCP+RE-2, UCP+RE-3, or UCP+RE-5 was added. An equal volume of PBS was used as blank. After culturing for 24 hr, a fluorescence microscope was used to observe, image, and count.
The ability to induce cell autophagy was estimated by determining the numbers of LC3 aggregates and vacuoles.

[3] = tested on: HeLa cells; assay: Effect of RE-1 analogues on cytotoxicity induced by UCN, UCP (MTT, PI staining); format: cell-based; conditions: 1 mg/mL, 24 hr
Protocol: (§1) MTT cell vitality assay is performed as follows: The cells to which samples have been added are cultured for 24 hr, and then 0.5 mg/mL MTT solution is added and cultured for 4 hr. The MTT solution in the well is discharged, and then 200 μL DMSO is added, followed by gently shaking the plate on a shaking table for 10 min. Detection is performed using microplate reader (ELX800, purchased from BIO-TEK) at a wavelength of 570 nm.
(§2) PI staining assay is performed as follows: The cells to which samples have been added are cultured for 24 hr, and then to the culture Hoechst 33342 (10 mM, purchased from Sigma, USA, Catalog #: B2261) and PI (Propidium Iodide) (10 mM, purchased from Beyotime Biotechnology, Catalog #: ST511) are added for 10 min of staining. Then, the cells are detected and photographed under a fluorescence microscope (Olympus IX71, purchased from Olympus). The number of the cells counted by this assay was 500.
(§3) HeLa cells were inoculated into 96-well cell culturing plate at a density of about 1-2×10^4 cells/well, and cultured overnight for further use. At first, the medium was replaced with fresh DMEM medium, and then 1 mg/mL UCN, UCP, UCN+PEG (containing 10 mg PEG), UCN+RE-1, UCP, UCP+RE-1, UCN+RE-2, UCN+RE-3, UCN+RE-5, UCP+RE-2, UCP+RE-3, or UCP+RE-5 were added, respectively. After culturing for 24 hr, MTT cell viability assay and PI staining were performed to detect the mortality of the cells.

[4] = tested on: mice liver; assay: Autophagosome formation in mice livers by transmission electron microscope; format: in vivo, Balb/c mice; conditions: RE-1 with UCN, PEG with UCN, AP-1 with UCP
Protocol: (§4) Balb/c mice (purchased from SLAC Laboratory Animal (Shanghai, China), 6 weeks old, and weighed 20 g when used) were bred in a sterile housing, and then 300 μg (dosage: 15 mg/kg) UCN, UCN+PEG (containing 10 mg PEG), UCN+RE-1, UCP, UCP+RE-1, or UCP+AP-1 was injected through tail vein. An equal volume of normal saline was injected as a control. After 24 hr, the livers of the mice were removed and subjected to western blotting assay.
(§5) The mice livers obtained as described in Example 21 were in situ fixed with 2.5% glutaral-dimethyl arsine buffer (pH 7.4) at 4° C. for 1 hr, then fixed with 2% osmium tetroxide at room temperature for 1 hr, and then dehydrated with ethanol gradients. Then, the cell samples were embedded into epoxy resin (EPON812). The embedded cell samples were cut into ultrathin slices, which were stained with uranyl acetate and lead citrate, and observed and imaged under a transmission electron microscope (JEOL-1230, JEOL, Japan).

[5] = tested on: LC3 type II in mice liver; assay: Western blotting of LC3 in mice livers after tail vein injection; format: in vivo; conditions: UCP+AP-1, tail vein, 24 hr
Protocol: (§6) Western blotting is performed as follows: After an incubation of 24 h, the cells are collected and lysed with lysis buffer (purchased from Beyotime Biotechnology, China). The lysate is boiled in boiling water for 10 min, subjected to 15% SDS-PAGE, and then transferred to nylon membrane (purchased from Amersham Inc.) by a wet transfer. In the Western blotting, Anti-LC3 (Light Chain 3 Protein Antibody, purchased from Novus Inc., Catalog #: NB 100-2220) is used as primary antibody; GAPDH (purchased from Millipore Inc.) is used as internal reference; and Horseradish peroxidase (HRP) conjugated goat anti-rabbit IgG (H+L) (Goat Anti-Rabbit IgG (H+L), HRP Conjugate) (purchased from Promega Inc.) is used as secondary antibody.
as §4

[6] = tested on: LC3 II in HeLa cells; assay: Western blotting of LC3 in HeLa cells; format: cell-based; conditions: 100 μg/mL UCP+AP-1
Protocol: as §6
HeLa cells were inoculated into a 24-well cell culturing plate at a density of about 3-5×10^4 cells/well, and cultured overnight for further use. At first, the medium was replaced with fresh DMEM medium, and then 100 μg/mL UCN or UCN+RE-1 was added. An equal volume of PBS was used as blank. A mixture of 100 μg/mL UCN and 10 mg/mL PEG was used as negative control. 100 mM trehalose was used as positive control. Then, western blotting assay was performed.
HeLa cells were inoculated into a 24-well cell culturing plate at a density of about 3-5×10^4 cells/well, and cultured overnight for further use. At first, the medium was replaced with fresh DMEM medium, and then 100 μg/mL UCP or UCP+RE-1 was added. An equal volume of PBS was used as blank. A mixture of 100 μg/mL UCP+AP-1 and a mixture of 400 μg/mL TiO2+AP-1 were used as negative control. 400 μg/mL TiO2 was used as positive control. Then, western blotting assay was performed.

[7] = tested on: mice liver; assay: Liver damage in mice livers (HE staining); format: in vivo, Balb/c mice; conditions: UCP+RE-1 or UCP+AP-1, tail vein, 24 hr
Protocol: as §4
as §5, with “in paraffin.” for “into epoxy resin (EPON812).”, “HE (hematoxylin-eosin),” for “uranyl acetate and lead citrate,”, “fluorescence microscope.” for “a transmission electron microscope (JEOL-1230, JEOL, Japan).”

[8] = tested on: HeLa cells; assay: RE-1-RGD effect on cytotoxicity induced by UCN (MTT, PI staining); format: cell-based; conditions: 1 mg/mL RE-1-RGD-coated UCN, 24 hr, MTT and PI staining
Protocol: as §1, §2
as §3, with “UCN,” for “UCN, UCP, UCN+PEG (containing 10 mg PEG),”, “and UCN+RE-1-RGD” for “UCP, UCP+RE-1, UCN+RE-2, UCN+RE-3, UCN+RE-5, UCP+RE-2, UCP+RE-3, or UCP+RE-5”

[9] = tested on: HeLa-LC3 cells; assay: RE-1-RGD effect on UCN-induced autophagy (LC3 dot-like aggregates and vacuoles); format: cell-based; conditions: 100 μg/mL RE-1-RGD-coated UCN, 24 hr
Protocol: UCN coated with RE-1-RGD was prepared as follows: 50 μg RE-1-RGD and 100 μg UCN were mixed, incubated at 37° C. for 2 hr, and then centrifuged at 12000 rpm. The resultant precipitate was washed with water for 3 times to remove the excess and unbound RE-1-RGD peptides. Then, the precipitate was resuspended in 100 μL water for further use.
HeLa-LC3 cells were inoculated into a 96-well cell culture plate at a density of about 1-2×10^4 cells/well, and cultured overnight for further use. At first, the medium was replaced with fresh DMEM medium, and then 100 μg/mL UCN, UCN+RE-1, and UCN+RE-1-RGD were added, respectively. An equal volume of PBS was used as blank. After culturing for 24 hr, LC3 dot-like aggregates and vacuoles in the cells were observed and imaged under a fluorescence microscope.

[10] = tested on: LC3 II in HeLa cells; assay: RE-1-RGD effect on UCN-induced autophagy (western blotting LC3 II); format: cell-based; conditions: 100 μg/mL RE-1-RGD-coated UCN
Protocol: as §6
HeLa cells were inoculated into 24-well cell culture plate at a density of about 3-5×10^4 cells/well, and cultured overnight for further use. At first, the medium was replaced with fresh DMEM medium, and then 100 μg/mL UCN, UCN+PEG (containing 10 mg PEG), UCN+RE-1, and UCN+RE-1-RGD were added, respectively. An equal volume of PBS was used as blank. 100 mM trehalose was used as positive control. Then, western blotting assay was performed.

[11] = tested on: HeLa cells; assay: Adherence of UCN coated with RE-1 or RE-1-RGD to HeLa cells; format: cell-based; conditions: 37° C., 2 hr, versus uncoated
Protocol: HeLa cells were cultured on a coverslip (22 mm×22 mm), which was then placed into a 6-well plate with the cells facing upward or downward, and the coverslip was supported by a sterilized glass cube (2 mm×2 mm×2 mm). Then, 4 mL of DMEM medium containing the rare-earth upconversion nanophosphors coated with RE-1 or RE-1-RGD or without any coating was slowly poured into the 6-well plate, such that the cells were fully immersed in the medium, and the coverslip was just located at the middle of the height of the liquid. The cells were placed into a cell incubator at 37° C. for 2 hr, and then washed with PBS 3 times. The UCNs adhered to the surfaces of the cells were observed under a fluorescence microscope (Olympus IX71, Olympus, Japan) equipped with a 980-nm infrared laser (MDL-980 nm 1 W, Changchun New Industries Optoelectronics Tech. Co., Ltd, China).

## AATARSPWICG [RE-4, RE-1 2C→A]
[1]
  IC50: 270 ± 8.67 µM

## ACAARSPWICG [RE-5, RE-1 3T→A]
[2]
  inhibition of GFP-LC3 dot-like aggregation and cytoplasm vacuolation induced by UCN: did not inhibit
  rank of ability after coating UCN to inhibit cell autophagy induced by UCN: RE-1>RE-3>RE-5
[3]
  inhibitory effect of coating on cytotoxicity induced by UCN and UCP: RE-1>RE-3>RE-5
[1]
  IC50: 689 ± 8.38 µM

## ACNATLPHQCG [AP-1, same terminal amino acids but irrelevant amino acids therebetween, reference compound]
[4]
  inhibition of autophagosome formation induced by nanophosphors (UCN, UCP) in liver: did not
[5]
  inhibition of ability of UCP to induce autophagy in liver: could not inhibit
[6]
  inhibition of ability of nanophosphor to induce cell autophagy by AP-1: not for AP-1
[1]
  IC50: > 5000 µM
[7]
  effect of coating on liver damage induced by UCP: showed no such effect

## ACTAASPWICG [RE-6, RE-1 5R→A]
[1]
  IC50: 78.4 ± 7.07 µM

## ACTARAPWICG [RE-7, RE-1 65→A as printed]
[1]
  IC50: 83.9 ± 6.65 µM

## ACTARSAWICG [RE-8, RE-1 7P→A]
[1]
  IC50: 440 ± 8.48 µM

## ACTARSPAICG [RE-9, RE-1 8W→A]
[1]
  IC50: 86.7 ± 8.07 µM

## ACTARSPWACG [RE-10, RE-1 9I→A]
[1]
  IC50: 71.5 ± 5.1 µM

## ACWPATRISCG [RE-3, order of 7 middle amino acids of RE-1 disrupted]
[2]
  inhibition of GFP-LC3 dot-like aggregation and cytoplasm vacuolation induced by UCN: exhibited an inhibitory effect
  rank of ability after coating UCN to inhibit cell autophagy induced by UCN: RE-1>RE-3>RE-5
[2]; 100 μg/mL UCN coated
  reduction of GFP-LC3 dot-like aggregation induced by UCN: 21%
  reduction of cytoplasm vacuolation induced by UCN: 50%
[3]
  inhibitory effect of coating on cytotoxicity induced by UCN and UCP: RE-1>RE-3>RE-5
[1]
  IC50: 64.3 ± 2.33 µM

## CRGDCGGACTARSPWICG [RE-1-RGD, RE-1 and tumor cell-targeting peptide RGD]
[8]
  cell mortality versus group treated with UCN: significantly higher
[9]
  LC3 dot-like aggregates and vacuoles in cells versus UCN group: significantly increased
[10]
  LC3 II in the cells: significantly increased
[11]
  number of coated upconversion nanophosphors adhered to the surface of the cells: significantly higher

## TARSPWI [RE-2, TARSPWI]
[2]
  inhibition of GFP-LC3 dot-like aggregation and cytoplasm vacuolation induced by UCN: did not inhibit
  rank of ability after coating UCN to inhibit cell autophagy induced by UCN: substantially no inhibitory effect
[3]
  inhibitory effect of coating on cytotoxicity induced by UCN and UCP: nearly showed no inhibitory effect
[1]
  IC50: 1307 ± 6.5 µM
